Reference: US20020137929A1, “1 - (3-heterocyclylphenyl) isothiourea, -isourea, -guanidine and -amidine herbicidal agents” (Intellectual Property Department, BASF Aktiengesellschaft, priority 1998, published 2002)

Assays:
[1] = test system: GLXMAW (Soybean, Williams); assay: Postemergence herbicidal evaluation; format: in vivo, Glycine max, (L.) Merr. cv Williams; conditions: postemergence
Procedure, shortened: (§1)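 Two-week-old seedlings sprayed with compound in 50/50 acetone/water plus 0.5% TWEEN 20, at about 0.0156 to 0.500 kg/ha, nozzle at 40 psi. Kept in greenhouse; rated visually 4-5 weeks after treatment on a 0-9 scale versus control, repeat tests averaged.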

[2] = test system: TRZAWR (Wheat, Winter, cv Riband); assay: Postemergence herbicidal evaluation; format: in vivo, Triticum aestivum; conditions: postemergence
Procedure, shortened: as §1

ORYSAT (Rice, Tebonnet) = assay: Preemergence herbicidal evaluation; format: in vivo, Oryza sativa, (L.) Tebonnet; conditions: rated 4-5 weeks after treatment
Procedure, shortened: (§2)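 Rating at 4–5 wk post-spray on a 0–9 visual scale vs control. Application: aqueous acetone, ~0.0156–0.500 kg/ha, to soil surface after seeding, preemergence.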

MOOVA (Monochoria) = assay: Preemergence weed control under flooded paddy conditions; format: in vivo, Monochoria vaginalis; conditions: rated 3-4 weeks after treatment
Procedure, shortened: (§3)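 Greenhouse paddy assay. Acetone/water (50/50 v/v) solutions dosed into flood water, equivalent to about 0.0313 to 0.500 kg/ha active ingredient, over seeds planted 0.5 cm deep in silt loam. Score: 0-9 visual, based on stand, vigor, malformation, size and chlorosis, 3 to 4 weeks after treatment.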

GALAP (Galium) [3] = assay: Preemergence herbicidal evaluation; format: in vivo, Galium aparine; conditions: rated 4-5 weeks after treatment
Procedure, shortened: as §2

[4] = test system: SAGPY (Arrowhead (Pygmaea)); assay: Preemergence weed control under flooded paddy conditions; format: in vivo, Sagittaria pygmaea; conditions: rated 3-4 weeks after treatment
Procedure, shortened: as §3

CASOB (Sicklepod) = assay: Postemergence herbicidal evaluation; format: in vivo, Cassia obtusifolia; conditions: postemergence
Procedure, shortened: as §1

GALAP (Galium) [5] = assay: Postemergence herbicidal evaluation; format: in vivo, Galium aparine; conditions: postemergence
Procedure, shortened: as §1

AMBEL (Ragweed, Common) = assay: Postemergence herbicidal evaluation; format: in vivo, Ambrosia artemisifolia; conditions: postemergence
Procedure, shortened: as §1

CYPSE (Flatsedge) = assay: Preemergence weed control under flooded paddy conditions; format: in vivo, Cyperus serotinus; conditions: rated 3-4 weeks after treatment
Procedure, shortened: as §3

SETVI (Foxtail, Green) = assay: Preemergence herbicidal evaluation; format: in vivo, Setaria viridis; conditions: rated 4-5 weeks after treatment
Procedure, shortened: as §2

[6] = test system: ECHORC (Watergrass (Calif.)); assay: Preemergence weed control under flooded paddy conditions; format: in vivo, Echinochloa oryzoides; conditions: rated 3-4 weeks after treatment
Procedure, shortened: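 Seeds or propagules sown in top 0.5 cm of silt loam soil, flooded 1.5 to 3 cm above surface throughout. Compound in 50/50 v/v aqueous/acetone pipetted into flood water at about 0.0313 to 0.500 kg/ha. Visual 0-9 rating versus control after three to four weeks in greenhouse.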

CCOC(=O)CN1C(=O)C(C(=O)OCC)SC1=Nc1cc(-n2c(=O)cc(C(F)(F)F)n(C)c2=O)c(F)cc1Cl (stereo not drawn) [Compound 127, 5-Carboxy-2-{{2-chloro-5-[3,6-dihydro-3-methyl-2,6-dioxo-4-(trifluoromethyl)-1(2H)-pyrimidinyl]-4-fluorophenyl}imino}-4-oxo-3-thiazolidineacetic acid, diethyl ester]
herbicidal rating GLXMAW ([1]; rate 0.0156 kg/ha): 5.0 | herbicidal rating GLXMAW ([1]; rate 0.0313 kg/ha): 5.5 | herbicidal rating GLXMAW ([1]; rate 0.0625 kg/ha): 7.5 | herbicidal rating GLXMAW ([1]; rate 0.1250 kg/ha): 9.0 | herbicidal rating TRZAWR ([2]; rate 0.0156 kg/ha): 2.5 | herbicidal rating TRZAWR ([2]; rate 0.0313 kg/ha): 2.5 | herbicidal rating TRZAWR ([2]; rate 0.0625 kg/ha): 3.5 | herbicidal rating TRZAWR ([2]; rate 0.1250 kg/ha): 6.0 | Preemergence herbicidal rating ORYSAT (ORYSAT (Rice, Tebonnet); rate 0.0313 kg/ha): 0.0 | Preemergence herbicidal rating ORYSAT (ORYSAT (Rice, Tebonnet); rate 0.0625 kg/ha): 0.0 | Preemergence herbicidal rating ORYSAT (ORYSAT (Rice, Tebonnet); rate 0.1250 kg/ha): 0.0 | Preemergence herbicidal rating ORYSAT (ORYSAT (Rice, Tebonnet); rate 0.2500 kg/ha): 0.0 | Preemergence herbicidal rating ORYSAT (ORYSAT (Rice, Tebonnet); rate 0.5000 kg/ha): 3.0 | herbicidal effect rating, MOOVA (MOOVA (Monochoria); 0.0313 kg/ha): 3.0 | herbicidal effect rating, MOOVA (MOOVA (Monochoria); 0.0625 kg/ha): 3.0 | herbicidal effect rating, MOOVA (MOOVA (Monochoria); 0.1250 kg/ha): 5.0 | herbicidal effect rating, MOOVA (MOOVA (Monochoria); 0.2500 kg/ha): 7.0 | Preemergence herbicidal rating GALAP (GALAP (Galium) [3]; rate 0.0313 kg/ha): 0.0 | Preemergence herbicidal rating GALAP (GALAP (Galium) [3]; rate 0.0625 kg/ha): 3.0 | Preemergence herbicidal rating GALAP (GALAP (Galium) [3]; rate 0.1250 kg/ha): 3.0 | Preemergence herbicidal rating GALAP (GALAP (Galium) [3]; rate 0.2500 kg/ha): 7.0 | Preemergence herbicidal rating GALAP (GALAP (Galium) [3]; rate 0.5000 kg/ha): 9.0 | herbicidal effect rating, SAGPY ([4]; 0.0313 kg/ha): 0.0 | herbicidal effect rating, SAGPY ([4]; 0.0625 kg/ha): 0.0 | herbicidal effect rating, SAGPY ([4]; 0.1250 kg/ha): 0.0 | herbicidal effect rating, SAGPY ([4]; 0.2500 kg/ha): 3.0 | herbicidal rating CASOB (CASOB (Sicklepod); rate 0.0156 kg/ha): 0.0 | herbicidal rating CASOB (CASOB (Sicklepod); rate 0.0313 kg/ha): 0.0 | herbicidal rating CASOB (CASOB (Sicklepod); rate 0.0625 kg/ha): 1.0 | herbicidal rating CASOB (CASOB (Sicklepod); rate 0.1250 kg/ha): 1.0 | herbicidal rating GALAP (GALAP (Galium) [5]; rate 0.0156 kg/ha): 0.0 | herbicidal rating GALAP (GALAP (Galium) [5]; rate 0.0313 kg/ha): 0.0 | herbicidal rating GALAP (GALAP (Galium) [5]; rate 0.0625 kg/ha): 2.0 | herbicidal rating GALAP (GALAP (Galium) [5]; rate 0.1250 kg/ha): 3.0 | herbicidal rating AMBEL (AMBEL (Ragweed, Common); rate 0.0156 kg/ha): 9.0 | herbicidal rating AMBEL (AMBEL (Ragweed, Common); rate 0.0313 kg/ha): 9.0 | herbicidal rating AMBEL (AMBEL (Ragweed, Common); rate 0.0625 kg/ha): 9.0 | herbicidal rating AMBEL (AMBEL (Ragweed, Common); rate 0.1250 kg/ha): 9.0 | herbicidal effect rating, CYPSE (CYPSE (Flatsedge); 0.0313 kg/ha): 0.0 | herbicidal effect rating, CYPSE (CYPSE (Flatsedge); 0.0625 kg/ha): 0.0 | herbicidal effect rating, CYPSE (CYPSE (Flatsedge); 0.1250 kg/ha): 0.0 | herbicidal effect rating, CYPSE (CYPSE (Flatsedge); 0.2500 kg/ha): 0.0 | Preemergence herbicidal rating SETVI (SETVI (Foxtail, Green); rate 0.0313 kg/ha): 0.0 | Preemergence herbicidal rating SETVI (SETVI (Foxtail, Green); rate 0.0625 kg/ha): 0.0 | Preemergence herbicidal rating SETVI (SETVI (Foxtail, Green); rate 0.1250 kg/ha): 9.0 | Preemergence herbicidal rating SETVI (SETVI (Foxtail, Green); rate 0.2500 kg/ha): 9.0 | Preemergence herbicidal rating SETVI (SETVI (Foxtail, Green); rate 0.5000 kg/ha): 9.0 | herbicidal effect rating, ECHORC ([6]; 0.0313 kg/ha): 4.0 | herbicidal effect rating, ECHORC ([6]; 0.0625 kg/ha): 7.0 | herbicidal effect rating, ECHORC ([6]; 0.1250 kg/ha): 9.0 | herbicidal effect rating, ECHORC ([6]; 0.2500 kg/ha): 9.0
